Experimental data: publication PMC4624772 (PLoS Pathogens, 2015)

Biological target: T1, MshE (VC0405) (Vibrio cholerae, UniProt Q9KUV7)
T1 construct: gene VC_0405
Assay: biochemical

T1 sequence (Q9KUV7 1-575): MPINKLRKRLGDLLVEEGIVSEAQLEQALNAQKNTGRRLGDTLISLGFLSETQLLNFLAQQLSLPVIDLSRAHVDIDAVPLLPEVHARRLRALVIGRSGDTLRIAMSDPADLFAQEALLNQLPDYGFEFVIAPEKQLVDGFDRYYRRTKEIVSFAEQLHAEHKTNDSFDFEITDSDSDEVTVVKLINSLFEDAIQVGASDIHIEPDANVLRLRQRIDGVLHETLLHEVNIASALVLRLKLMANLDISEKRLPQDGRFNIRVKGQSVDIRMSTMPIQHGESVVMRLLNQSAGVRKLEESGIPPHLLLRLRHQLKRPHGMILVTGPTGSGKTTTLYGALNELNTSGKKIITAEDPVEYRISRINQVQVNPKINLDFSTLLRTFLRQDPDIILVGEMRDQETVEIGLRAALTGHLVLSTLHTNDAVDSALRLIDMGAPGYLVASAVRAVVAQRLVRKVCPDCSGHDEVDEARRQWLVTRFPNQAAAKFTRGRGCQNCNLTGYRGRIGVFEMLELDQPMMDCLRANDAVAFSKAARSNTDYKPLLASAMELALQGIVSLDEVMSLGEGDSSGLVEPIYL

Nc1nc2c(ncn2[C@@H]2O[C@@H]3CO[P@](=O)(O)O[C@H]4[C@@H](O)[C@H](n5cnc6c(=O)[nH]c(N)nc65)O[C@@H]4CO[P@](=O)(O)O[C@H]3[C@H]2O)c(=O)[nH]1 [c-di-GMP]
Kd: 1900 ± 400 nM
